Values quoted from earlier work, collected in patent publication US12329788B2, “Synbiotic compositions” (Evonik Operations GmbH, priority 2018, dated 2025).
Where a SMILES comes first, the peptide text is derived from it.

Key:
[1] = infused, post-operative anaesthetized dogs; cited from earlier work
gut microbiota = conditions: oral supplementation, overweight humans; cited from earlier work
[2] = oral supplementation, guinea-pigs treated with methotrexate; cited from earlier work

Q: With `C[C@H](N)C(=O)N[C@@H](CCC(N)=O)C(=O)O` [Ala-Gln, Alanine-Glutamine] (H-Ala-Gln-OH) as the molecule, how does the “extraction of the amino acids by skeletal muscle” value [1] read?
A: extracted by skeletal muscle almost as well as from mixtures of alanine and glutamine

Q: For `NC(=O)CC[C@H](N)C(=O)O` [Gln, glutamine, reference compound], which “Firmicutes to Bacteriodetes ratio” value (gut microbiota) is on record?
A: reducing the Firmicutes to Bacteriodetes ratio

Q: And the mortality [2]?
A: reduced mortality
